Data reported in ChEMBL document CHEMBL3991601, “The target landscape of clinical kinase drugs” (Science, 2017).
Activity calls are given as the source filed them.

Tests used:
[1] = target: T1, Mitogen-activated protein kinase kinase kinase 3 (Homo sapiens, UniProt Q99759)
T1 sequence (Q99759 whole entry): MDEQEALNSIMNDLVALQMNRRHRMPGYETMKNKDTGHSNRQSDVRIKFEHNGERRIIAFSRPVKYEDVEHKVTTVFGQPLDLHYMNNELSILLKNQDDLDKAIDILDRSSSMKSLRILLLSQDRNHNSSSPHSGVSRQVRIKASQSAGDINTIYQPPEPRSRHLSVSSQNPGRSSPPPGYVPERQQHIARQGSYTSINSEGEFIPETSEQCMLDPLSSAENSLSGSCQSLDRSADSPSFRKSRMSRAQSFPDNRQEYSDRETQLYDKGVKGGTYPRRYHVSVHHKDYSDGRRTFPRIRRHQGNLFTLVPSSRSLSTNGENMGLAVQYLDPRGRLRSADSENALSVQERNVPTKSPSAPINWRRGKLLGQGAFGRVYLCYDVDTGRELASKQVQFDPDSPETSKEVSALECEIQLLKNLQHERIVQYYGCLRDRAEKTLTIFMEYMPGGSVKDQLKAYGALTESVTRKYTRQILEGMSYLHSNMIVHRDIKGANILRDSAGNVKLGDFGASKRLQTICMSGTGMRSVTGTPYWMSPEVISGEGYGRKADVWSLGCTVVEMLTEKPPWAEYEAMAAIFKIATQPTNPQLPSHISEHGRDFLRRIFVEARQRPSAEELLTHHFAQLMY

[2] = target: T2, Peroxisomal acyl-coenzyme A oxidase 1 (Homo sapiens, UniProt Q15067)
T2 sequence (Q15067 whole entry): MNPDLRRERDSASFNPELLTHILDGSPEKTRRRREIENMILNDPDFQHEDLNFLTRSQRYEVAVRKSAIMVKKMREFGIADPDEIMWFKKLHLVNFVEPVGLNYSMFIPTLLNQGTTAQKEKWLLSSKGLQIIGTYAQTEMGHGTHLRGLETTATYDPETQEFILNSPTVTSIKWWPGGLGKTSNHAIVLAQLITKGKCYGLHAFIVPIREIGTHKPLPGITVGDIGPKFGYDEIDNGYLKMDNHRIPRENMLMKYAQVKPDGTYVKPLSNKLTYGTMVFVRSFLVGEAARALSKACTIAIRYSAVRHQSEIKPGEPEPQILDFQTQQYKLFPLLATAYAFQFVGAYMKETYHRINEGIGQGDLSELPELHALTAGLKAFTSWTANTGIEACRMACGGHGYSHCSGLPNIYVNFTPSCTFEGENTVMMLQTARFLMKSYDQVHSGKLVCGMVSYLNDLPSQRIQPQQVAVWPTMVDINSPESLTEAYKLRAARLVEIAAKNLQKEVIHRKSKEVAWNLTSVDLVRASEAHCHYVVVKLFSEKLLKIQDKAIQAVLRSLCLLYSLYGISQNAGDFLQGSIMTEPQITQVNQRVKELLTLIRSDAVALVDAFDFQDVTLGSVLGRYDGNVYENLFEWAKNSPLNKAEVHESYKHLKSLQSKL

[3] = target: Casein kinase I isoform gamma-1 (Homo sapiens, UniProt Q9HCP0)
Ephrin type-B receptor 2 = target: T3, Ephrin type-B receptor 2 (Homo sapiens, UniProt P29323)
T3 sequence (P29323 whole entry): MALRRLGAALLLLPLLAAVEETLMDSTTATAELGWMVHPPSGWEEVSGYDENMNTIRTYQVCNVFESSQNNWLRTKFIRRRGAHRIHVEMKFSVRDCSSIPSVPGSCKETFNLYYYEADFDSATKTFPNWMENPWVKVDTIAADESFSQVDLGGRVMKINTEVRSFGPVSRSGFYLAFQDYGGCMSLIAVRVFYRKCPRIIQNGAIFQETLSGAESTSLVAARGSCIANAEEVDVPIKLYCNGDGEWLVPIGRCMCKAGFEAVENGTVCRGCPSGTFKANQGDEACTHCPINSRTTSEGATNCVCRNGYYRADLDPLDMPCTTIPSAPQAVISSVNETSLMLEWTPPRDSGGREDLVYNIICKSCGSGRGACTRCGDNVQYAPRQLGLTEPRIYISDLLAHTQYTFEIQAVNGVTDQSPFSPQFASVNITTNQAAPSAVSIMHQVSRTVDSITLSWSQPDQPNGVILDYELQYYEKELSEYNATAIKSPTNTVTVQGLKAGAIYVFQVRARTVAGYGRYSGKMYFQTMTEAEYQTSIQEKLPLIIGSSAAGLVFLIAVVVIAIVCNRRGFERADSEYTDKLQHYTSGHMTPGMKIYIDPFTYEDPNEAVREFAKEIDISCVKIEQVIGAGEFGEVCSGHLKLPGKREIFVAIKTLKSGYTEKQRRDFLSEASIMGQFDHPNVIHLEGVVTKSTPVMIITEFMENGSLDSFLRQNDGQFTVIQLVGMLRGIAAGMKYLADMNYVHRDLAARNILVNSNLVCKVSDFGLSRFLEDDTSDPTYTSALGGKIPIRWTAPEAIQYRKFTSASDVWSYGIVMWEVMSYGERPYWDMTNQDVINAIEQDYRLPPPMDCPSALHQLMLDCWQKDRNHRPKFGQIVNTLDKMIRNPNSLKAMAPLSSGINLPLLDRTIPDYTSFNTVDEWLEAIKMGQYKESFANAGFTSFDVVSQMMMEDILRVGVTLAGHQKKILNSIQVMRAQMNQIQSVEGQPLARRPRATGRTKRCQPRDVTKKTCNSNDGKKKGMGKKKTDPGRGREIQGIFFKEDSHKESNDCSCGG

Activin receptor type-2B = Activin receptor type-2B (Homo sapiens, UniProt Q13705)
Note: in the data inactive means no Kd found up to 30 µM.

Chain of Casein kinase I isoform gamma-1 (Q9HCP0 whole entry, canonical isoform): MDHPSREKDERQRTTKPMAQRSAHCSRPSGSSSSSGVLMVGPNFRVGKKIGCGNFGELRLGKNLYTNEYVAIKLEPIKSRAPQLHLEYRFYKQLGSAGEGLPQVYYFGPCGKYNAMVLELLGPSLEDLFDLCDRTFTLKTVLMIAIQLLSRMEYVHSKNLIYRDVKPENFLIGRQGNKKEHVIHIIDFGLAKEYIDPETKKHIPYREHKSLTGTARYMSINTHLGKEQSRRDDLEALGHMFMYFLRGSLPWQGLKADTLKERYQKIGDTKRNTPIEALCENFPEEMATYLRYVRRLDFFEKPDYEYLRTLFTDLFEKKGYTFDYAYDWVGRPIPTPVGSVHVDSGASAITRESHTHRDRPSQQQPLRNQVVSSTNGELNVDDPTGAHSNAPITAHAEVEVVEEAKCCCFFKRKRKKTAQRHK
Chain of Activin receptor type-2B (Q13705 whole entry): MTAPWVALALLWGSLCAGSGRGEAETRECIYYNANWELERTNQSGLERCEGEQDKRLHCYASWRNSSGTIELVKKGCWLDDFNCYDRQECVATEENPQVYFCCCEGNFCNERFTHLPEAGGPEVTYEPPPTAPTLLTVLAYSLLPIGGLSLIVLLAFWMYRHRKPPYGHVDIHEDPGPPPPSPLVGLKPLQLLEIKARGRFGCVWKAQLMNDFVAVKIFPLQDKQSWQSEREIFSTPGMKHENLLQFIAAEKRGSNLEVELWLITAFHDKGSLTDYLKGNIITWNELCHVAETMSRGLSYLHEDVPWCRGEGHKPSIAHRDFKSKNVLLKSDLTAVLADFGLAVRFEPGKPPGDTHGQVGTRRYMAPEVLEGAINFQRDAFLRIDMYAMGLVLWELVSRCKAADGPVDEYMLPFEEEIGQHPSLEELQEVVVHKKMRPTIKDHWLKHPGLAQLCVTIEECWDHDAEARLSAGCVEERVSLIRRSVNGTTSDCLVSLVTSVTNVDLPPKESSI

Row | Structure (SMILES) | Kd [1] | Kd [2] | Kd [3] | Kd (Ephrin type-B receptor 2) | Kd (Activin receptor type-2B)
1 | Cc1ccc(NC(=O)c2ccc(CN3CC[C@H](N(C)C)C3)c(C(F)(F)F)c2)cc1Nc1nccc(-c2cncnc2)n1 [BAFETINIB] | > 30 µM (inactive) | > 30 µM (inactive) | > 30 µM (inactive) | 53.2 µM (active) | > 30 µM (inactive)
2 | COc1ccc(-c2ccc3c(N4CCOC[C@@H]4C)nc(N4CCOC[C@@H]4C)nc3n2)cc1CO [AZD-8055] | > 30 µM (inactive) | > 30 µM (inactive) | > 30 µM (inactive) | > 30 µM (inactive) | > 30 µM (inactive)
3 | Cn1cc(-c2ccc(F)c(C(F)(F)F)c2)nc1C1CCN(c2ncnc3[nH]ncc23)CC1 [LY-2584702] | > 30 µM (inactive) | > 30 µM (inactive) | > 30 µM (inactive) | > 30 µM (inactive) | > 30 µM (inactive)
4 | N[C@@H]1CCCN(c2c(/C=C3\SC(=O)NC3=O)cccc2-c2ccccc2)C1 | > 30 µM (inactive) | > 30 µM (inactive) | > 30 µM (inactive) | > 30 µM (inactive) | > 30 µM (inactive)
5 | CNC(=O)CN1CCC(Oc2cc3c(Nc4cccc(Cl)c4F)ncnc3cc2OC)CC1 [SAPITINIB] | > 30 µM (inactive) | > 30 µM (inactive) | > 30 µM (inactive) | 2.28 µM | > 30 µM (inactive)
6 | COc1cc(CCc2cc(NC(=O)c3ccc(N4C[C@@H](C)N[C@@H](C)C4)cc3)n[nH]2)cc(OC)c1 [AZD-4547] | > 30 µM (inactive) | > 30 µM (inactive) | > 30 µM (inactive) | > 30 µM (inactive) | > 30 µM (inactive)
7 | CNC(=O)c1ccc(C)c(-n2c(C)cc(OCc3ccc(F)cc3F)c(Br)c2=O)c1 [PH-797804] | > 30 µM (inactive) | > 30 µM (inactive) | > 30 µM (inactive) | > 30 µM (inactive) | > 30 µM (inactive)
8 | CNC(=O)c1cc(Oc2ccc(NC(=O)Nc3ccc(Cl)c(C(F)(F)F)c3)c(F)c2)ccn1 [REGORAFENIB] | > 30 µM (inactive) | > 30 µM (inactive) | > 30 µM (inactive) | > 30 µM (inactive) | > 30 µM (inactive)
9 | CCN1CCN(Cc2ccc(-c3cc4c(N[C@H](C)c5ccccc5)ncnc4[nH]3)cc2)CC1 [AEE-788] | > 30 µM (inactive) | > 30 µM (inactive) | > 30 µM (inactive) | > 30 µM (inactive) | > 30 µM (inactive)
10 | CN1CC[C@@H](c2c(O)cc(O)c3c(=O)cc(-c4ccccc4Cl)oc23)[C@@H]1CO | > 30 µM (inactive) | > 30 µM (inactive) | > 30 µM (inactive) | > 30 µM (inactive) | > 30 µM (inactive)
11 | C1=C/COCc2cc(ccc2OCCN2CCCC2)Nc2nccc(n2)-c2cccc(c2)COC/1 [PACRITINIB] | > 30 µM (inactive) | > 30 µM (inactive) | > 30 µM (inactive) | > 30 µM (inactive) | > 30 µM (inactive)
12 | COc1cc2nccc(Oc3ccc(NC(=O)Nc4cc(C)on4)c(Cl)c3)c2cc1OC [TIVOZANIB] | > 30 µM (inactive) | > 30 µM (inactive) | > 30 µM (inactive) | 0.448 µM (active) | > 30 µM (inactive)
13 | CNC(=O)c1ccc(-c2cnc3ncc(Cc4ccc5ncccc5c4)n3n2)cc1F [CAPMATINIB] | > 30 µM (inactive) | > 30 µM (inactive) | > 30 µM (inactive) | > 30 µM (inactive) | > 30 µM (inactive)
14 | C[C@@H](c1ccc2nccn2c1)n1nnc2ncc(-c3cnn(C)c3)nc21 [SAVOLITINIB] | > 30 µM (inactive) | > 30 µM (inactive) | > 30 µM (inactive) | > 30 µM (inactive) | > 30 µM (inactive)
15 | CC[C@@H]1C(=O)N(C)c2cnc(Nc3ccc(C(=O)N[C@H]4CC[C@H](N5CCN(CC6CC6)CC5)CC4)cc3OC)nc2N1C(C)C [VOLASERTIB] | > 30 µM (inactive) | > 30 µM (inactive) | > 30 µM (inactive) | > 30 µM (inactive) | > 30 µM (inactive)
16 | CN1CCC(COc2cnc(-c3cccc(Cn4nc(-c5cccc(C#N)c5)ccc4=O)c3)nc2)CC1 [TEPOTINIB] | > 30 µM (inactive) | > 30 µM (inactive) | > 30 µM (inactive) | > 30 µM (inactive) | > 30 µM (inactive)
17 | Cc1cc2c(F)c(Oc3ncnn4cc(OC[C@@H](C)OC(=O)[C@H](C)N)c(C)c34)ccc2[nH]1 [BRIVANIB ALANINATE] | > 30 µM (inactive) | > 30 µM (inactive) | > 30 µM (inactive) | > 30 µM (inactive) | > 30 µM (inactive)
18 | CN1N=C(N)c2cn([C@@H]3O[C@H](COP(=O)(O)O)[C@@H](O)[C@H]3O)c3ncnc1c23 [TRICIRIBINE PHOSPHATE] | > 30 µM (inactive) | > 30 µM (inactive) | > 30 µM (inactive) | > 30 µM (inactive) | > 30 µM (inactive)
19 | Cc1cc([C@@H](C)Nc2ccccc2C(=O)O)c2nc(N3CCOCC3)cc(=O)n2c1 [AZD-6482] | > 30 µM (inactive) | > 30 µM (inactive) | > 30 µM (inactive) | > 30 µM (inactive) | > 30 µM (inactive)
20 | COC(=O)[C@@]1(O)C[C@H]2O[C@]1(C)n1c3ccccc3c3c4c(c5c6ccccc6n2c5c31)C(=O)NC4 [K-252A] | > 30 µM (inactive) | > 30 µM (inactive) | > 30 µM (inactive) | > 30 µM (inactive) | > 30 µM (inactive)
21 | CCS(=O)(=O)N1CC(CC#N)(n2cc(-c3ncnc4[nH]ccc34)cn2)C1 [BARICITINIB] | > 30 µM (inactive) | > 30 µM (inactive) | 1.75 µM | > 30 µM (inactive) | > 30 µM (inactive)
22 | Cc1cc(-c2cc(O)ccc2Cl)cc2nnc(Nc3ccc(OCCN4CCCC4)cc3)nc12 | > 30 µM (inactive) | > 30 µM (inactive) | > 30 µM (inactive) | 0.002 µM (active) | > 30 µM (inactive)
23 | O=C(c1ccc(F)c(F)c1Nc1ccc(I)cc1F)N1CC(O)([C@@H]2CCCCN2)C1 [COBIMETINIB] | > 30 µM (inactive) | > 30 µM (inactive) | > 30 µM (inactive) | > 30 µM (inactive) | > 30 µM (inactive)
24 | COc1cc(N2CCC(N3CCN(C)CC3)CC2)ccc1Nc1ncnc(Nc2ccccc2S(=O)(=O)C(C)C)n1 [ASP-3026] | > 30 µM (inactive) | > 30 µM (inactive) | > 30 µM (inactive) | > 30 µM (inactive) | > 30 µM (inactive)
25 | O=c1sn(-c2cccc3ccccc23)c(=O)n1Cc1ccccc1 [TIDEGLUSIB] | > 30 µM (inactive) | > 30 µM (inactive) | > 30 µM (inactive) | > 30 µM (inactive) | > 30 µM (inactive)
